{"source": "paper PMC7827406", "about": "“Structure–Activity Relationship (SAR) Study of Spautin-1 to Entail the Discovery of Novel NEK4 Inhibitors” (International Journal of Molecular Sciences, 2021)", "experiment_in_all_cases": "biochemical", "parameters_in_all_cases": "Eurofins KinaseProfiler full panel at Km ATP, residual kinase activity (%) relative to DMSO", "key": {"[1]": {"molecular_target": "CaMKK2(h) (Homo sapiens, UniProt Q96RR4)", "sequence (Q96RR4 whole entry)": "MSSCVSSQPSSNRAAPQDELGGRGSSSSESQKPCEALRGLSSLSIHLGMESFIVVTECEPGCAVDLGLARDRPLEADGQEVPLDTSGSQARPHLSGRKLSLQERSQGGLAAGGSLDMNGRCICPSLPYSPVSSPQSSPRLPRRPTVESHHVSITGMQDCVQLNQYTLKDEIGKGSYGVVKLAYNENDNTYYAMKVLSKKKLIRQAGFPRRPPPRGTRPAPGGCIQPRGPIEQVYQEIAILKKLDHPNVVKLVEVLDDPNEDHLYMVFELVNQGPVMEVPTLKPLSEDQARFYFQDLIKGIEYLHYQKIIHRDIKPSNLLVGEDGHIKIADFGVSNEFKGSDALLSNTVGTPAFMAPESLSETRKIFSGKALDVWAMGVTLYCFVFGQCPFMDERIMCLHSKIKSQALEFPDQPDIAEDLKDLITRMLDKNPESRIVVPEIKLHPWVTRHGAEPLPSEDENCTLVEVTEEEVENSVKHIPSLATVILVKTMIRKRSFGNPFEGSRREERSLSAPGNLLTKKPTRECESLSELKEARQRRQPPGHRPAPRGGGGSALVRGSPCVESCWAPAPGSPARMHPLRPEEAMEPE", "in_short": "(§1)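 Two 10 µM single-concentration screens were run: a competition-binding screen, in which DNA-tagged kinase bound to immobilized ligands was quantified by qPCR, and a radiometric activity panel at Km ATP. Each is expressed as residual kinase activity (%).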"}, "[2]": {"molecular_target": "T1, TSSK4(h) (Homo sapiens, UniProt Q6SA08)", "T1 sequence (Q6SA08 1-328)": "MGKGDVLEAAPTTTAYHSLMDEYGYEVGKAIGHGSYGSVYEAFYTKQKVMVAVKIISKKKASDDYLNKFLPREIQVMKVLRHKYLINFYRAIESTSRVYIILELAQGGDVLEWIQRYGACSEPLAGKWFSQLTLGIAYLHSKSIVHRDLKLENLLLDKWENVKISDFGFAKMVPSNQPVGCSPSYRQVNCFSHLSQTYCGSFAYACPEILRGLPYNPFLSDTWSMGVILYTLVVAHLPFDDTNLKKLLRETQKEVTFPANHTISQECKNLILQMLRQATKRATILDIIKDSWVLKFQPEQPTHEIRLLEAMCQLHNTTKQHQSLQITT", "in_short": "as §1"}, "[3]": {"molecular_target": "T2, Fms(h) (Homo sapiens, UniProt P07333)", "T2 construct": "gene CSF1R", "in_short": "as §1"}, "[4]": {"molecular_target": "T3, SAPK2a(h) (Homo sapiens, UniProt Q16539)", "T3 construct": "gene MAPK14", "in_short": "as §1"}, "[5]": {"molecular_target": "T4, MRCKγ(h) (Homo sapiens, UniProt Q6DT37)", "T4 construct": "gene CDC42BPG", "in_short": "as §1"}, "[6]": {"molecular_target": "T5, Abl (Q252H) (h) (Homo sapiens, UniProt P00519, Q252H)", "T5 construct": "gene ABL1", "in_short": "as §1"}, "[7]": {"molecular_target": "T6, AMPKα1(h) (Homo sapiens, UniProt Q13131)", "T6 construct": "gene PRKAA1", "in_short": "as §1"}, "[8]": {"molecular_target": "EGFR(L861Q)(h) (Homo sapiens, UniProt P00533, L861Q)", "sequence (P00533 whole entry L861Q)": "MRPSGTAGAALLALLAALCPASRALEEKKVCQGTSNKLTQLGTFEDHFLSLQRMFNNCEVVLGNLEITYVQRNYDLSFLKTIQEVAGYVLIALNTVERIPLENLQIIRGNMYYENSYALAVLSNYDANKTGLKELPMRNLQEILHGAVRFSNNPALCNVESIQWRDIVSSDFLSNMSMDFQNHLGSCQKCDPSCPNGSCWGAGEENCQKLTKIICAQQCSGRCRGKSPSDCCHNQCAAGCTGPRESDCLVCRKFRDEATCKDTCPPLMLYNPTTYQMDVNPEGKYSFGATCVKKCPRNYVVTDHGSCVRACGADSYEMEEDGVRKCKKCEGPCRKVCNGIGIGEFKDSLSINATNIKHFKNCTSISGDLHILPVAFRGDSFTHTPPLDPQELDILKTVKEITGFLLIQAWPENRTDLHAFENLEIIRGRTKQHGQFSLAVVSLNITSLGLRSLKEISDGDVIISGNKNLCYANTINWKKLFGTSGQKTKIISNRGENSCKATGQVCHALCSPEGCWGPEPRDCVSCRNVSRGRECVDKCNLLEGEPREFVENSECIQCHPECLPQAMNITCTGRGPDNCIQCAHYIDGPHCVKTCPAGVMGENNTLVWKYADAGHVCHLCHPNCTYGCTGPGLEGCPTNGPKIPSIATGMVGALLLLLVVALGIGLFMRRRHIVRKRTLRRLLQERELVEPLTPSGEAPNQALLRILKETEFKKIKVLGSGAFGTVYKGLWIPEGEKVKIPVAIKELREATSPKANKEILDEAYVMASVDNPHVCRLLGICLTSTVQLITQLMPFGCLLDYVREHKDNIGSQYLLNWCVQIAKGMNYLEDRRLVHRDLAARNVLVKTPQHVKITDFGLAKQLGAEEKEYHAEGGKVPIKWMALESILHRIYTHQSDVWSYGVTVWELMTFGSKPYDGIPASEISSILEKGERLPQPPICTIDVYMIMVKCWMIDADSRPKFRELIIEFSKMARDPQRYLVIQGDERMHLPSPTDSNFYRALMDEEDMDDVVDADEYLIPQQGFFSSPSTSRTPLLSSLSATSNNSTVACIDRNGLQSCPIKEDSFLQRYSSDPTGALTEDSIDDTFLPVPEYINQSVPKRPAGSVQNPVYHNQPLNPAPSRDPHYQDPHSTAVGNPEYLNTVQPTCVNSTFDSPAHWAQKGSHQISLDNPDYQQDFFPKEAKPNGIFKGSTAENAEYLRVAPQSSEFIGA", "in_short": "as §1"}, "[9]": {"molecular_target": "T7, SGK(h) (Homo sapiens, UniProt O00141)", "T7 construct": "gene SGK1", "T7 sequence (O00141 1-431)": "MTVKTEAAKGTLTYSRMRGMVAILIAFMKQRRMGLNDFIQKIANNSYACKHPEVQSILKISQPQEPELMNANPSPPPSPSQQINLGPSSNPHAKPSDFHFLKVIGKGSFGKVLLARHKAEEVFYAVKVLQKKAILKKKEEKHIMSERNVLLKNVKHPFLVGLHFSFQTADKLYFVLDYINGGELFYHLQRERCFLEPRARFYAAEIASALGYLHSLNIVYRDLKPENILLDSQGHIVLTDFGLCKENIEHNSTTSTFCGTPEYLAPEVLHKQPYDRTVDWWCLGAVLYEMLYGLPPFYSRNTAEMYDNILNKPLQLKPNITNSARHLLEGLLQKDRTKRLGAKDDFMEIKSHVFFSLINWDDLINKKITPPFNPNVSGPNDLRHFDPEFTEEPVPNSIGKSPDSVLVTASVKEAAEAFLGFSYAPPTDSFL", "in_short": "as §1"}, "[10]": {"molecular_target": "T8, A-Raf(h) (Homo sapiens, UniProt P10398)", "T8 construct": "gene ARAF", "T8 sequence (P10398 1-606)": "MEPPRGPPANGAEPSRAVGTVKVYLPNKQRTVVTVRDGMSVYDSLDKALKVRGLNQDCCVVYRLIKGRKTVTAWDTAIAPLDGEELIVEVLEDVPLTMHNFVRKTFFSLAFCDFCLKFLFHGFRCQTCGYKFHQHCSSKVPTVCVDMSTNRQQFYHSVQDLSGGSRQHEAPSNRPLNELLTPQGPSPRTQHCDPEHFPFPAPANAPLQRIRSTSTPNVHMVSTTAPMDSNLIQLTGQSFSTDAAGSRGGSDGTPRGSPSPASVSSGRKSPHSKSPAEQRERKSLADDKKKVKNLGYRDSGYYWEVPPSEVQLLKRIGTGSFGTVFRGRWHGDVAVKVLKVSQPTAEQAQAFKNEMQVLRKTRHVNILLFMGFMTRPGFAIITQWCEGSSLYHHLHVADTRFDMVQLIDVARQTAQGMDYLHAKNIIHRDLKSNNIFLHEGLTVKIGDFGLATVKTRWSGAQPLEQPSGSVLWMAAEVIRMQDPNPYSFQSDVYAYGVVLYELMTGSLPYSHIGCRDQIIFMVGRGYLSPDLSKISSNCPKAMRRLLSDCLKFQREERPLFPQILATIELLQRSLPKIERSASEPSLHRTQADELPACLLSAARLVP", "in_short": "as §1"}, "[11]": {"molecular_target": "CDK9/cyclin T1(h) (Homo sapiens, UniProt P50750)", "sequence (P50750 whole entry)": "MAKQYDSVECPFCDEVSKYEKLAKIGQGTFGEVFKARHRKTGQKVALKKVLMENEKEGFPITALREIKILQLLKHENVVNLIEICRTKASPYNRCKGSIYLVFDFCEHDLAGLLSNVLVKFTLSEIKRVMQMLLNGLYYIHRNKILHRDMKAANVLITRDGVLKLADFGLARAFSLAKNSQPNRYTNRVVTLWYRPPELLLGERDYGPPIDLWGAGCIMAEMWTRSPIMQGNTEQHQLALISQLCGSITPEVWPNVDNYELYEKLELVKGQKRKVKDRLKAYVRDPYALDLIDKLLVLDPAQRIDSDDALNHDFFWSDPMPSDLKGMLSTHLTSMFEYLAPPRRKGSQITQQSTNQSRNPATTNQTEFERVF", "sequence (O60563 whole entry partner)": "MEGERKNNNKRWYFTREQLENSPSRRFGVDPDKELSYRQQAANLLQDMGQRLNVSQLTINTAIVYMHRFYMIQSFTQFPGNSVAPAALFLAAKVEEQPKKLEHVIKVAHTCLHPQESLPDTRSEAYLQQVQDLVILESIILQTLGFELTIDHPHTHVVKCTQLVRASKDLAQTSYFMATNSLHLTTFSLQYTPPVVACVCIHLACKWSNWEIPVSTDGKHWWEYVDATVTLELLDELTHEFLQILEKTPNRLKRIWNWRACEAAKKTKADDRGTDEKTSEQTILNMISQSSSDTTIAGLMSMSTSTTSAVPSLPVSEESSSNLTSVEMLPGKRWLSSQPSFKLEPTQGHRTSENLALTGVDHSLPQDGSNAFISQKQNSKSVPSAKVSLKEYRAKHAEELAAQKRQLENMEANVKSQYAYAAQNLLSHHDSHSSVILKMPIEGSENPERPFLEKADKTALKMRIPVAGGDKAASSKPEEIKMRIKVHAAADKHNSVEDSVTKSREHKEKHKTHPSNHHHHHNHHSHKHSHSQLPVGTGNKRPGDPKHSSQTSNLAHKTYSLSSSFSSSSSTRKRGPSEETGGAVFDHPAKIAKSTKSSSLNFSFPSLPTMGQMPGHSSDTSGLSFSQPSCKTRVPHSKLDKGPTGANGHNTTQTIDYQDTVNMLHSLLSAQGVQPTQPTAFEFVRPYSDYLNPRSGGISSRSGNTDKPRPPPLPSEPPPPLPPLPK", "in_short": "as §1"}, "[12]": {"settings": "read-out: Residual activity (%) 5at"}, "[13]": {"settings": "read-out: Residual activity (%) 5as"}, "[14]": {"settings": "read-out: Residual activity (%) 5ay"}, "[15]": {"settings": "read-out: Residual activity (%) Spautin-1 5aa"}}, "note": "Read-outs that look alike come from different tables or passages of the source.", "data": [{"smiles": "Fc1ccc2ncnc(NCCc3ccc(Cl)cc3)c2c1", "note": "[5at, N-[2-(4-Chlorophenyl)Ethyl]-6-Fluoro-4-Quinazolinamine]", "values": [{"measurement": "remaining activity at 10 µM", "setting": "[1]; [12]", "value": 96, "unit": "%"}, {"measurement": "remaining activity at 10 µM", "setting": "[2]; [12]", "value": 125, "unit": "%"}, {"measurement": "remaining activity at 10 µM", "setting": "[3]; [12]", "value": 64, "unit": "%"}, {"measurement": "remaining activity at 10 µM", "setting": "[4]; [12]", "value": 88, "unit": "%"}, {"measurement": "remaining activity at 10 µM", "setting": "[5]; [12]", "value": 102, "unit": "%"}, {"measurement": "remaining activity at 10 µM", "setting": "[6]; [12]", "value": 88, "unit": "%"}, {"measurement": "remaining activity at 10 µM", "setting": "[7]; [12]", "value": 85, "unit": "%"}, {"measurement": "remaining activity at 10 µM", "setting": "[8]; [12]", "value": 73, "unit": "%"}, {"measurement": "remaining activity at 10 µM", "setting": "[9]; [12]", "value": 92, "unit": "%"}, {"measurement": "remaining activity at 10 µM", "setting": "[10]; [12]", "value": 108, "unit": "%"}, {"measurement": "remaining activity at 10 µM", "setting": "[11]; [12]", "value": 86, "unit": "%"}]}, {"smiles": "Fc1ccc(CCNc2ncnc3ccc(F)cc23)cc1", "note": "[5as, 6-Fluoro-N-[2-(4-Fluorophenyl)Ethyl]-4-Quinazolinamine]", "values": [{"measurement": "remaining activity at 10 µM", "setting": "[1]; [13]", "value": 87, "unit": "%"}, {"measurement": "remaining activity at 10 µM", "setting": "[2]; [13]", "value": 112, "unit": "%"}, {"measurement": "remaining activity at 10 µM", "setting": "[3]; [13]", "value": 72, "unit": "%"}, {"measurement": "remaining activity at 10 µM", "setting": "[4]; [13]", "value": 98, "unit": "%"}, {"measurement": "remaining activity at 10 µM", "setting": "[5]; [13]", "value": 98, "unit": "%"}, {"measurement": "remaining activity at 10 µM", "setting": "[6]; [13]", "value": 104, "unit": "%"}, {"measurement": "remaining activity at 10 µM", "setting": "[7]; [13]", "value": 93, "unit": "%"}, {"measurement": "remaining activity at 10 µM", "setting": "[8]; [13]", "value": 51, "unit": "%"}, {"measurement": "remaining activity at 10 µM", "setting": "[9]; [13]", "value": 86, "unit": "%"}, {"measurement": "remaining activity at 10 µM", "setting": "[10]; [13]", "value": 106, "unit": "%"}, {"measurement": "remaining activity at 10 µM", "setting": "[11]; [13]", "value": 93, "unit": "%"}]}, {"smiles": "COc1ccc2ncnc(Nc3cccc(F)c3)c2c1", "note": "[5ay, N-(3-Fluorophenyl)-6-Methoxy-4-Quinazolinamine]", "values": [{"measurement": "remaining activity at 10 µM", "setting": "[1]; [14]", "value": 78, "unit": "%"}, {"measurement": "remaining activity at 10 µM", "setting": "[2]; [14]", "value": 134, "unit": "%"}, {"measurement": "remaining activity at 10 µM", "setting": "[3]; [14]", "value": 90, "unit": "%"}, {"measurement": "remaining activity at 10 µM", "setting": "[4]; [14]", "value": 99, "unit": "%"}, {"measurement": "remaining activity at 10 µM", "setting": "[5]; [14]", "value": 92, "unit": "%"}, {"measurement": "remaining activity at 10 µM", "setting": "[6]; [14]", "value": 80, "unit": "%"}, {"measurement": "remaining activity at 10 µM", "setting": "[7]; [14]", "value": 100, "unit": "%"}, {"measurement": "remaining activity at 10 µM", "setting": "[9]; [14]", "value": 82, "unit": "%"}, {"measurement": "remaining activity at 10 µM", "setting": "[10]; [14]", "value": 100, "unit": "%"}, {"measurement": "remaining activity at 10 µM", "setting": "[11]; [14]", "value": 100, "unit": "%"}]}, {"smiles": "Fc1ccc(CNc2ncnc3ccc(F)cc23)cc1", "note": "[5aa, 6-Fluoro-N-(4-fluorobenzyl)-4-Quinazolinamine]", "values": [{"measurement": "remaining activity at 10 µM", "setting": "[1]; [15]", "value": 79, "unit": "%"}, {"measurement": "remaining activity at 10 µM", "setting": "[2]; [15]", "value": 89, "unit": "%"}, {"measurement": "remaining activity at 10 µM", "setting": "[3]; [15]", "value": 94, "unit": "%"}, {"measurement": "remaining activity at 10 µM", "setting": "[4]; [15]", "value": 95, "unit": "%"}, {"measurement": "remaining activity at 10 µM", "setting": "[5]; [15]", "value": 105, "unit": "%"}, {"measurement": "remaining activity at 10 µM", "setting": "[6]; [15]", "value": 104, "unit": "%"}, {"measurement": "remaining activity at 10 µM", "setting": "[7]; [15]", "value": 110, "unit": "%"}, {"measurement": "remaining activity at 10 µM", "setting": "[8]; [15]", "value": 36, "unit": "%"}, {"measurement": "remaining activity at 10 µM", "setting": "[9]; [15]", "value": 82, "unit": "%"}, {"measurement": "remaining activity at 10 µM", "setting": "[10]; [15]", "value": 103, "unit": "%"}, {"measurement": "remaining activity at 10 µM", "setting": "[11]; [15]", "value": 104, "unit": "%"}]}]}
